Laboratory results published in patent US12221432B2, “Estrogen receptor antagonist” (CHIA TAI TIANQING PHARMACEUTICAL GROUP CO., LTD., priority 2018, dated 2025).
Where a name gives a salt, the structure may show the parent alone.

What was measured:
[1] = molecular target: T1, CYP2D6 (Homo sapiens, UniProt P10635); assay: Cytochrome P450 isoenzyme inhibition, CYP2D6; assay type: in vitro ADME; conditions: human liver microsomes; read-out: CYP enzyme inhibition (IC50) 2D6
T1 construct: tissue Corning Co., Ltd; host or cells: human liver microsomes
T1 sequence (P10635 whole entry): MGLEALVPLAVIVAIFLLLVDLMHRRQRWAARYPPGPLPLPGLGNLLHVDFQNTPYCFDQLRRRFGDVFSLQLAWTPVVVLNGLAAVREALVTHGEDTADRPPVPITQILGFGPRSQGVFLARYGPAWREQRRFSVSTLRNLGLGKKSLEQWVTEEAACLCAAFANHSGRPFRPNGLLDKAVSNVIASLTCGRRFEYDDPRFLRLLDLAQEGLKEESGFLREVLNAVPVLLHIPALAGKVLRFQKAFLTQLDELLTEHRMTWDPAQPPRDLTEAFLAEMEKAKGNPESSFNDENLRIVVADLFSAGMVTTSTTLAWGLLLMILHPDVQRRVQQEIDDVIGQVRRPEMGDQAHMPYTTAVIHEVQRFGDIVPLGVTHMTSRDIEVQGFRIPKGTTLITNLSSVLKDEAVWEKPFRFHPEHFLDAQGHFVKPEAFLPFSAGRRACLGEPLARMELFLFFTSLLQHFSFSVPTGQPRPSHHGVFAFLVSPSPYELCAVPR
Description: Experimental objective: To determine the inhibitory effect of the test compound on the activity of human liver microsomal cytochrome P450 isoenzymes (CYP1A2, CYP2C9, CYP2C19, CYP2D6 and CYP3A4; Corning Co., Ltd.). […]

[2] = system: P-gp (human MDR1); assay: MDR1-MDCK two-way permeability assay; assay type: in vitro ADME, canine; conditions: dog
Description: In this study, the MDR1-MDCKII cell line authorized by the Piet Borst Laboratory of the Netherlands Cancer Institute was used as the in vitro model. It is a Madin-Darby canine kidney cell transfected with human multiple drug resistance gene (MDR1). The cells can stably express the efflux transporter P-gp, so it is suitable for screening P-gp substrates or inhibitors and predicting the permeability of the compounds through barriers with high efflux effects in the duodenum, blood-brain barrier, […] and kidney units, etc. This study was intended to use MDR1-MDCK II cells for investigating the two-way permeability of the test compounds through the MDR1-MDCK II cell model.
Procedures: The standard conditions are as follows: • Test concentration: 2 μM (DMSO≤1%); • Replicate: n=2; • Direction: Two-way transport, including two directions: A→B and B→A; • Incubation time: single time point, 2.5 hours; • Transport buffer: HBSS buffer containing 10 mM Hepes, pH 7.4; Incubation condition: 37° C., 5% CO2.
After the incubation, sample solutions at the dosing end and the receiving end were collected and mixed with the cold acetonitrile solution containing the internal standard immediately. LC/MS/MS method was used to analyze the concentration of the test compounds in all samples (including the initial dosing solution, the dosing end samples and the receiving end samples). The apparent permeability coefficient, efflux ratio and other parameters were calculated.

[3] = Pharmacokinetics study in mice (cassette); assay type: in vivo; conditions: female, Balb/c, plasma, mouse cassette PK
Description: Objective: To determine the drug concentration in the plasma of the mice at different times after intravenous and oral administration of the test compounds by LC/MS/MS using female Balb/c mice as the test animals. To investigate the pharmacokinetic performance of the test compounds in mice and to evaluate the pharmacokinetic characteristics.
Test animals: 4 healthy female Balb/c mice were divided into 2 groups according to the principle of similar weight, 2 in the IV group and 2 in the PO group. The animals were purchased from Shanghai Lingchang Biotechnology Co., Ltd.
IV group: Appropriate amounts of compounds were weighed respectively, prepared into 2 mg/mL solutions, then mixed to give a 0.5 mg/mL solution, which was stirred and ultrasonicated until a clear state. The vehicle was 15% HP-b-CD.
PO group: An appropriate amount of the IV group solution was taken and diluted to 0.4 mg/mL with 15% HP-b-CD.
Administration: After fasting overnight, the IV group was administered intravenously, and the dose of the test compound was 1 mg/kg; the PO group was administered intragastrically, and the dose of the test compound was 2 mg/kg.
Procedures: For IV group, 30 μL of blood was collected from the saphenous vein of the female Balb/c mice at 0.0833, 0.25, 0.5, 1, 2, 4, 8, and 24 hours post-dose, and placed in a commercial anticoagulant tube with EDTA-K2 added in advance. For PO group, 30 μL of blood was collected from the saphenous vein of the female Balb/c mice at 0.25, 0.5, 1, 2, 4, 8, 12 and 24 hours post-dose, and placed in a commercial anticoagulant tube with EDTA-K2 added in advance. The blood samples were centrifuged (3,200 g, 4° C., 10 minutes) to give plasma samples, which was transferred to a pre-cooled centrifuge tube, frozen in dry ice, and stored in an ultra-low temperature freezer at −60° C. or lower until the LC-MS/MS analysis. The animals were given free access to food 4 hours after the administration. LC/MS/MS method was used to determine the content of the test compounds in the plasma of mice after intravenous and oral administration. The linear range of the method is 2.00-2000 nM.

IC50 [1]: 25.6 µM
Papp A→B at 2.5 h, 2 μM ([2]; MDCK-MDR1, A-B, pH 7.4): 0.44 ×10⁻⁶ cm/s
Papp B→A at 2.5 h, 2 μM ([2]; MDCK-MDR1, B-A, pH 7.4): 1.93 ×10⁻⁶ cm/s
efflux ratio at 2.5 h, 2 μM ([2]; MDCK-MDR1, pH 7.4, B-A/A-B): 4.39
AUC(0-t) ([3]; iv, i.v. 1 mg/kg): 2.43 µM·h
clearance ([3]; iv, i.v. 1 mg/kg): 12.9 mL/min/kg
half-life ([3]; iv, i.v. 1 mg/kg): 3.37 h
Vd ([3]; iv, i.v. 1 mg/kg, read-out: Vdss): 3.46 L/kg
AUC(0-t) ([3]; po, p.o. 2 mg/kg): 1.27 µM·h
Cmax ([3]; po, p.o. 2 mg/kg): 224 nM
Tmax ([3]; po, p.o. 2 mg/kg): 0.25 h
bioavailability ([3]; po, p.o. 2 mg/kg): 26.1%
half-life ([3]; po, p.o. 2 mg/kg): 8.12 h
SMILES: CC/C(=C(/c1ccc(OCCNC/C=C/C(=O)N(C)C)nc1)c1[nH]c2ccccc2c1Cl)c1ccccc1 [Compound 3 monohydrochloride]
